The text below walks through data of patent US5521088A, “Alcohol acetyltransferase genes and use thereof” (Kirin Beer Kabushiki Kaisha, priority 1992, dated 1996).

Data set [1] addresses T1, AATase (Saccharomyces cerevisiae, UniProt P40353, N391K/T84I).
T1 construct: culturing yeast cells of Saccharomyces cerevisiae KYOKAI No. 7 and recovering and purifying the crude enzyme; endogenous in cells; host or cells: Saccharomyces cerevisiae KYOKAI No. 7 (sake yeast)
T1 sequence (P40353 1-525 T84I/N391K): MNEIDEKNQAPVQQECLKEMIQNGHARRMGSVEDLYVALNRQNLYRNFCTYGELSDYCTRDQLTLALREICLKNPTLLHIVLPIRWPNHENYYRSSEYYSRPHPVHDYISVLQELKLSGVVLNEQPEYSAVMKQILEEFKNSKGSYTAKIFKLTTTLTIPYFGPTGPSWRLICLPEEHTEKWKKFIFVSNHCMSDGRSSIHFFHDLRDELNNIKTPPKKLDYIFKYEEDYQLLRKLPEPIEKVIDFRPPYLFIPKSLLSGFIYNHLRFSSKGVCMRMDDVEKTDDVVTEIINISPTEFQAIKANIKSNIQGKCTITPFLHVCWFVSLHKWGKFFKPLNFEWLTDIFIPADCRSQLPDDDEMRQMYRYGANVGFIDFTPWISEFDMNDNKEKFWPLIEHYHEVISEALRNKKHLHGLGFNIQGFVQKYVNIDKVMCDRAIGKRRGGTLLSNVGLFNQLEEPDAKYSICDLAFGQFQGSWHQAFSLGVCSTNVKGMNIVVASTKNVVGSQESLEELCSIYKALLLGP
Description: biochemical. Format: biochemical.

In data set [2] the target is T1, AATase. Description: biochemical. Particulars: read-out: Relative activity (%).
Substrate in data set [3]: CC(C)CCO
Description: Km value of AATase to isoamyl alcohol and acetyl-CoA. Format: biochemical, Saccharomyces cerevisiae. Particulars: other: substrate of AATase; pH 7.5; 25.0 °C. The method, then: (§1) A 1 ml of a solution containing a buffer for AATase reaction (25 mM imidazole hydrochloride buffer (pH 7.5), 1 mM acetyl-CoA, 0.1% Triton X-100, 0.5% isoamyl alcohol, 1 mM dithiothreitol, 0.1M sodium chloride, 20% glycerol: or 10 mM phosphate buffer (pH 7.5), 1 mM acetyl-CoA, 0.1% Triton X-100, 0.5% isoamyl alcohol, 1 mM dithiothreitol, 0.1M sodium chloride, 20% glycerol) and the enzyme of the present invention was encapsulated into a 20 ml vial and reacted at 25° C. for 1 hour. After incubation, the vial was opened and the reaction was stopped by adding 0.6 g of sodium chloride. n-Butanol was added as an internal standard to the reaction mixture up to 50 ppm. The vial was capped with a teflon stopper. Then, the isoamyl acetate generated was determined with the head space gas chromatography (Shimadzu GC-9A, HSS-2A) under the following condition: […]

Substrate in data set [4]: CC(=O)SCCNC(=O)CCNC(=O)[C@H](O)C(C)(C)COP(=O)(O)OP(=O)(O)OC[C@H]1O[C@@H](n2cnc3c(N)ncnc32)[C@H](O)[C@@H]1OP(=O)(O)O
Described as above. As to conditions: other: substrate of AATase; pH 7.5; 25.0 °C. Format: biochemical, Saccharomyces cerevisiae. The method, then: as §1

Usually Km stands for the concentration of substrate that gives half-maximal velocity.

“Also recorded” adds a separate entry of the source. Where two headings read alike, the source gives them in different places.

As to `c1cnc2c(c1)ccc1cccnc12` [1,10-phenanthroline], the activity at 1000 µM in data set [1] (read-out: Relative activity (%)) was 87.9%.

As to `O=C(O)c1cc(SSc2ccc([N+](=O)[O-])c(C(=O)O)c2)ccc1[N+](=O)[O-]` [DTNB, Dithiobis(2nitrobenzoic acid)], the “Relative activity (%)” value in data set [1] (inhibitor 0.1 mM per footnote (head: 1 mM), None = 100) came to 0%.

Turning to `CCCCC/C=C\C/C=C\CCCCCCCC(=O)O` [Linoleic acid], the activity at 2000 µM in data set [2] is 4.3%.

As to `CC/C=C\C/C=C\C/C=C\CCCCCCCC(=O)O` [Linolenic acid], the activity at 2000 µM in data set [2] worked out at 32%.

In the case of `CCCCCCCCCCCCCC(=O)O` [Myristic acid], in data set [2], the activity at 2000 µM was 60.5%.

With `CCCCCCCC/C=C\CCCCCCCC(=O)O` [Oleic acid], the activity at 2000 µM in data set [2] is 59.6%.

Turning to `O=C(O)c1cc[c]([Hg][Cl])cc1` [PCMB, pChloromercuribenzoic acid], in data set [1], the “Inhibition of the enzyme (in words)” value was “inhibited strongly; also recorded: intensively inhibited” and the “Relative activity (%)” value is listed as 0%.

Take `O=S(=O)(F)Cc1ccccc1` [PMSF, Phenylmethanesulfonyl fluoride]: the “Relative activity (%)” value in data set [1] came to 70.2%.

For the molecule `CCCCCCCCCCCCCCCC(=O)O` [Palmitic acid], the activity at 2000 µM in data set [2] turned out to be 88.1%.

Regarding `CCCCCC/C=C\CCCCCCCC(=O)O` [Palmitoleic acid], the activity at 2000 µM in data set [2] amounted to 16.7%.

Regarding `CCCCCCCCCCCCCCCCCC(=O)O` [Stearic acid], in data set [2], the activity at 2000 µM came out at 80.5%.

B1: AATase (Saccharomyces cerevisiae S288C; N391K/T84I) (protein)
chain: T1 sequence (P40353 1-525 T84I/N391K)
notes: culturing yeast cells of Saccharomyces cerevisiae KYOKAI No. 7 and recovering and purifying the crude enzyme; endogenous in cells; host or cells: Saccharomyces cerevisiae KYOKAI No. 7 (sake yeast)
B1: the Km worked out at 29.8 mM in data set [3] and 190 µM in data set [4].
